The target of assay [1] is T1, α3β4 nicotinic acetylcholine receptor (Gallus gallus, UniProt P09481+P26153).
T1 construct: gene CHRNA3; chicken α3β4 nAChR expressed in Xenopus laevis oocytes; with nAChR β4 subunit
Put plainly: two-electrode voltage-clamp, weak block:[…] reduction of the ACh response at […]. It is filed as cell-based. (In general: Two-electrode voltage clamp holds a large cell at a set potential and records current.)

The subject of assay [2] is T2, nicotinic acetylcholine receptor (native nAChRs of silkworm larval brain neurons, subunits not identified).
T2 construct: native receptors in cultured larval brain neurons
Put plainly: whole-cell patch-clamp, block of peak ACh-induced current (slowly desensitizing current IC50 […]). Format: cell-based, Bombyx mori.

The test system is the same in assay [3]. Put plainly: whole-cell patch-clamp, agonist concentration-response. It is filed as cell-based, Bombyx mori.
Assay [4] deals with T3, L-glutamate-gated chloride channel (native, silkworm larval brain neurons, subunits not identified) (Bombyx mori, UniProt V9P9S1).
T3 construct: native receptors in cultured larval brain neurons
T3 sequence (V9P9S1 25-446): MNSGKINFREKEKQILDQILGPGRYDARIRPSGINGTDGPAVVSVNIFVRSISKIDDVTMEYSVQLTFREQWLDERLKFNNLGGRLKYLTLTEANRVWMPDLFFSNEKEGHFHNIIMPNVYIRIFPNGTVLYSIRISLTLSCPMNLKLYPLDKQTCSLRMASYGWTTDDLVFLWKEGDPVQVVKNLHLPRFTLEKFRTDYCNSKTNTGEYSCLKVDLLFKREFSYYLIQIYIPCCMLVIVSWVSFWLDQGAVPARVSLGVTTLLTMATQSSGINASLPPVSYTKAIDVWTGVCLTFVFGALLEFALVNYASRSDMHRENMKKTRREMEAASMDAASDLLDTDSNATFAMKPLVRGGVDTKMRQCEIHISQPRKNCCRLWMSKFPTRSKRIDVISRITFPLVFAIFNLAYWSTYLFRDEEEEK
Put plainly: whole-cell patch-clamp, agonist-evoked current at […] (stated to be close to EC50). Format: cell-based. Background: Patch clamp records ionic current or voltage across a cell membrane.

T1 sequence (P09481 23-496): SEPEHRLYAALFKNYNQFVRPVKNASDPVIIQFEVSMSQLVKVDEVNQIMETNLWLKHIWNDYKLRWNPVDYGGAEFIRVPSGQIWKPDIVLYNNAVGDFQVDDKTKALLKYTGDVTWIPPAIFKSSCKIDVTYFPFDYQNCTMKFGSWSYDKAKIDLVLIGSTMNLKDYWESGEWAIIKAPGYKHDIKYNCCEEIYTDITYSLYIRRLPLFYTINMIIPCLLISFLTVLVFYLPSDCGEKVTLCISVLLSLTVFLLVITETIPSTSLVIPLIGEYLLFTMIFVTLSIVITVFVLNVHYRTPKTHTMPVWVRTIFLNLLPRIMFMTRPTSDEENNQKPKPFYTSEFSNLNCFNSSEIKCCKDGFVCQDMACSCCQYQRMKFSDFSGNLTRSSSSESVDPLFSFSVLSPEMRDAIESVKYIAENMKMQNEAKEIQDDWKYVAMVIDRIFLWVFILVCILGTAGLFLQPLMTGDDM
T1 sequence (P26153 4-470): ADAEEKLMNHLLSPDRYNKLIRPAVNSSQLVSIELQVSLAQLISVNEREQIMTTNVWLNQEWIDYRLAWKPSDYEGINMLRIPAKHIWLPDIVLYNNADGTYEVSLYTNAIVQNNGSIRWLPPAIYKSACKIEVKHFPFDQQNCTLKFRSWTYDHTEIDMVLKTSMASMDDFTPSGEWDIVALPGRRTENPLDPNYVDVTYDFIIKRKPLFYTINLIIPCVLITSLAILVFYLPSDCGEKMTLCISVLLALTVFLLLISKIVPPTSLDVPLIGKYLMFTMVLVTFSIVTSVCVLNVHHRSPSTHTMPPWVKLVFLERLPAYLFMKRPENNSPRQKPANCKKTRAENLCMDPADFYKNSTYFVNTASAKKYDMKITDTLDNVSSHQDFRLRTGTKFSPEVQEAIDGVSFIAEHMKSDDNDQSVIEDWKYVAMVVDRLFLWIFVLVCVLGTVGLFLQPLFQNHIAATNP

`C[C@H]1CCN2C[C@]34C[C@]5(CC(=O)N(C)C5=O)C(C)(C)[C@@H]3C[C@]12C(=O)N4C` [asperparaline A]: the inhibition (commonly the drop in the measured response relative to a control, in per cent) at 10 µM in assay [1] came to 33.4%. Also, in assay [2], the IC50 (commonly the concentration that gives 50% inhibition) is 0.0202 µM.
Take `CC(=O)OCC[N+](C)(C)C` [acetylcholine]: the 50% effective concentration (EC50) (commonly the concentration that produces a half-maximal response) in assay [3] was determined as […].
Regarding `N[C@@H](CCC(=O)O)C(=O)O` [L-glutamate], the EC50 in assay [4] was ~ 30 µM.

The record behind these values is paper PMC3069973, “A Fungal Metabolite Asperparaline A Strongly and Selectively Blocks Insect Nicotinic Acetylcholine Receptors: The First Report on the Mode of Action” (PLoS ONE, 2011).
